According to patent US20230167088A1, “1-PYRAZINYLPYRAZOLYL-3-OXYALKYL ACIDS AND THEIR DERIVATIVES, AND THEIR USE FOR CONTROL OF UNDESIRED PLANT GROWTH” (BAYER AKTIENGESELLSCHAFT, priority 2020, published 2023):

How the values were obtained:
[1] = system: DIGSA; test: Herbicidal pre-emergence action 2b (doubly sown, 1280 g/ha); assay type: in vivo, Digitaria sanguinalis; conditions: doubly sown pots, dosage 1280 g/ha, visual scoring after about 3 weeks
Procedure, shortened: (§1)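 Weed seeds sown in sandy loam, two species per pot, covered with soil; compounds as WP or EC applied to soil surface as aqueous suspension/emulsion with 0.5% additive at 600 L/ha water. Greenhouse growth; visual % activity vs untreated controls after about 3 weeks (100% = dead, 0% = like control).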

[2] = system: ECHCG; test: as above; assay type: in vivo, Echinochloa crus-galli; conditions: doubly sown pots, dosage 1280 g/ha, visual scoring after about 3 weeks
Procedure, shortened: as §1

[3] = system: AMARE; test: as above; assay type: in vivo, Amaranthus retroflexus; conditions: doubly sown pots, dosage 1280 g/ha, visual scoring after about 3 weeks
Procedure, shortened: as §1

[4] = system: STEME; test: Herbicidal post-emergence action 1b (twin sowing, 1280 g/ha); assay type: in vivo, Stellaria media; conditions: dosage 1280 g/ha, visual rating about 3 weeks after treatment
Procedure, shortened: (§2)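 Twin-sown mono- and dicot weeds in sandy loam were sprayed post-emergence at the one-leaf stage, 2–3 weeks after sowing, with WP or EC formulations in water plus 0.5% additive at 600 L/ha. After about 3 weeks in the greenhouse, activity was rated visually against untreated controls (0% = like control, 100% = plants dead).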

[5] = system: ABUTH; test: as above; assay type: in vivo, Abutilon theophrasti; conditions: dosage 1280 g/ha, visual rating about 3 weeks after treatment
Description: (§3) [table] b) Seeds of mono- and dicotyledonous weed plants are placed in plastic pots in sandy loam soil (twin sowing with one species each of mono- or dicotyledonous weed plants per pot), covered with soil and cultivated in a greenhouse under controlled growth conditions. 2 to 3 weeks after sowing, the test plants are treated at the one-leaf stage. The compounds of the invention, formulated in the form of wettable powders (WP) or as emulsion concentrates (EC), are applied to the green parts of the plants as aqueous suspension or emulsion with addition of 0.5% additive at a water application rate equivalent to 600 litres per hectare. After the test plants have been kept in the greenhouse under optimum growth conditions for about 3 weeks, the activity of the preparations is rated visually in comparison to untreated controls. For example, 100% activity=the plants have died, 0% activity=like control plants. Tables A16 to A21 below show the effects of selected compounds of the general formula (I) according to Tables 1 and 2 on various harmful plants and at an application rate corresponding to 1280 g/ha, which were obtained by the experimental procedure mentioned above.

[6] = system: MATIN; test: Herbicidal pre-emergence action 2b (doubly sown, 1280 g/ha); assay type: in vivo, Matricaria inodora; conditions: doubly sown pots, dosage 1280 g/ha, visual scoring after about 3 weeks
Procedure, shortened: as §1

[7] = system: POAAN; test: Herbicidal post-emergence action 1b (twin sowing, 1280 g/ha); assay type: in vivo, Poa annua; conditions: dosage 1280 g/ha, visual rating about 3 weeks after treatment
Procedure, shortened: as §2

[8] = system: DIGSA; test: as above; assay type: in vivo, Digitaria sanguinalis; conditions: dosage 1280 g/ha, visual rating about 3 weeks after treatment
Description: as §3

[9] = system: MATIN; test: as above; assay type: in vivo, Matricaria inodora; conditions: dosage 1280 g/ha, visual rating about 3 weeks after treatment
Procedure, shortened: as §2

[10] = system: STEME; test: Herbicidal pre-emergence action 2b (doubly sown, 1280 g/ha); assay type: in vivo, Stellaria media; conditions: doubly sown pots, dosage 1280 g/ha, visual scoring after about 3 weeks
Procedure, shortened: as §1

[11] = system: POAAN; test: as above; assay type: in vivo, Poa annua; conditions: doubly sown pots, dosage 1280 g/ha, visual scoring after about 3 weeks
Procedure, shortened: as §1

[12] = system: ECHCG; test: Herbicidal post-emergence action 1b (twin sowing, 1280 g/ha); assay type: in vivo, Echinochloa crus-galli; conditions: dosage 1280 g/ha, visual rating about 3 weeks after treatment
Description: as §3

[13] = system: ALOMY; test: Herbicidal pre-emergence action 2a (greenhouse pots, visual scoring); assay type: in vivo, Alopecurus myosuroides; conditions: dosage 320 g/ha, visual scoring after about 3 weeks
Procedure, shortened: (§4)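 Pre-emergence soil-surface spray: WP/EC, 0.5% additive, 600 l/ha water, 320 and/or 80 g/ha. Greenhouse ~3 wk. Visual % damage vs untreated (100% = plants dead, 0% = like control).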

[14] = system: MATIN; test: as above; assay type: in vivo, Matricaria inodora; conditions: dosage 320 g/ha, visual scoring after about 3 weeks vs untreated controls
Procedure, shortened: as §4

[15] = system: AMARE; test: as above; assay type: in vivo, Amaranthus retroflexus; conditions: dosage 320 g/ha, visual scoring after about 3 weeks vs untreated controls
Procedure, shortened: as §4

[16] = system: VIOTR; test: as above; assay type: in vivo, Viola tricolor; conditions: dosage 320 g/ha, visual scoring after about 3 weeks vs untreated controls
Description: [table] a) Seeds of monocotyledonous and dicotyledonous weed plants and crop plants are placed in plastic or organic plant pots and covered with soil. The compounds of the invention, formulated in the form of wettable powders (WP) or as emulsion concentrates (EC), are then applied onto the surface of the covering soil as aqueous suspension or emulsion with addition of 0.5% additive at a water application rate of 600 1/ha (converted). After the treatment, the pots are placed in a greenhouse and kept under good growth conditions for the trial plants. After about 3 weeks, the effect of the preparations is scored visually in comparison with untreated controls as percentages. For example, 100% activity=the plants have died, 0% activity=like control plants. Tables B1 to B15 below show the effects of selected compounds of the general formula (I) according to Tables 1 and 2 on various harmful plants and an application rate corresponding to 320 g/ha and/or 80 g/ha, which were obtained by the experimental procedure mentioned above.

[17] = system: VERPE; test: as above; assay type: in vivo, Veronica persica; conditions: dosage 320 g/ha, visual scoring after about 3 weeks vs untreated controls
Procedure, shortened: as §4

[18] = system: ALOMY; test: Herbicidal post-emergence action 1a (greenhouse pots, visual rating); assay type: in vivo, Alopecurus myosuroides; conditions: Dosage 80 g/ha; rated visually about 3 weeks after treatment; 100% = plants have died, 0% = like control plants
Procedure, shortened: (§5)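 Weeds and crops sown in sandy loam in greenhouse pots were sprayed post-emergence at the one-leaf stage (2–3 weeks after sowing) with WP or EC formulations plus 0.5% additive at 600 l/ha water, 320 and/or 80 g/ha. About 3 weeks later damage was rated visually against untreated controls (0% = no effect, 100% = dead).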

[19] = system: VIOTR; test: as above; assay type: in vivo, Viola tricolor; conditions: dosage 80 g/ha, visual rating about 3 weeks after treatment
Description: [table] a) Seeds of monocotyledonous and dicotyledonous weeds and crop plants are placed in sandy loam in plastic or organic plant pots, covered with soil and cultivated in a greenhouse under controlled growth conditions. 2 to 3 weeks after sowing, the test plants are treated at the one-leaf stage. The compounds of the invention, formulated in the form of wettable powders (WP) or as emulsion concentrates (EC), are then sprayed onto the green parts of the plants as aqueous suspension or emulsion with addition of 0.5% additive at a water application rate of 600 1/ha (converted). After the test plants have been kept in the greenhouse under optimum growth conditions for about 3 weeks, the activity of the preparations is rated visually in comparison to untreated controls. For example, 100% activity=the plants have died, 0% activity=like control plants. Tables A1 to A15 below show the effects of selected compounds of the general formula (I) according to Tables 1 and 2 on various harmful plants and an application rate corresponding to 320 g/ha and/or 80 g/ha, which were obtained by the experimental procedure mentioned above.

[20] = system: VERPE; test: as above; assay type: in vivo, Veronica persica; conditions: dosage 80 g/ha, visual rating about 3 weeks after treatment
Procedure, shortened: as §5

[21] = system: LOLRI; test: Herbicidal pre-emergence action 2a (greenhouse pots, visual scoring); assay type: in vivo, Lolium rigidum; conditions: dosage 320 g/ha, visual scoring after about 3 weeks vs untreated controls
Procedure, shortened: as §4

[22] = system: SETVI; test: as above; assay type: in vivo, Setaria viridis; conditions: dosage 320 g/ha, visual scoring after about 3 weeks vs untreated controls
Procedure, shortened: as §4

## O=C(O)COc1nn(-c2cnccn2)c(-c2ccc(F)nc2)c1Br [Example I-49, {[4-bromo-5-(6-fluoropyridin-3-yl)-1-(pyrazin-2-yl)-1H-pyrazol-3-yl]oxy}acetic acid]
[1]
  Pre-emergence action at 1280 g/ha against DIGSA in %: 100%
[2]
  Pre-emergence action at 1280 g/ha against ECHCG in %: 100%
[3]
  Pre-emergence action at 1280 g/ha against AMARE in %: 100%
[4]
  Post-emergence action at 1280 g/ha against STEME in %: 90%
[5]
  Post-emergence action at 1280 g/ha against ABUTH in %: 100%
[6]
  Pre-emergence action at 1280 g/ha against MATIN in %: 100%
[7]
  Post-emergence action at 1280 g/ha against POAAN in %: 100%
[8]
  Post-emergence action at 1280 g/ha against DIGSA in %: 90%
[9]
  Post-emergence action at 1280 g/ha against MATIN in %: 100%
[10]
  Pre-emergence action at 1280 g/ha against STEME in %: 100%
[11]
  Pre-emergence action at 1280 g/ha against POAAN in %: 100%
[12]
  Post-emergence action at 1280 g/ha against ECHCG in %: 100%

## N#CCOC(=O)COc1nn(-c2cnccn2)c(-c2ccc(F)nc2)c1Br [Example I-65]
[1]
  Pre-emergence action at 1280 g/ha against DIGSA in %: 100%
[2]
  Pre-emergence action at 1280 g/ha against ECHCG in %: 100%
[3]
  Pre-emergence action at 1280 g/ha against AMARE in %: 100%
[4]
  Post-emergence action at 1280 g/ha against STEME in %: 90%
[13]
  Pre-emergence action against ALOMY in %: 90%
[5]
  Post-emergence action at 1280 g/ha against ABUTH in %: 90%
[14]
  Pre-emergence action against MATIN in %: 90%
[15]
  Pre-emergence action against AMARE in %: 100%
[16]
  Pre-emergence action against VIOTR in %: 90%
[6]
  Pre-emergence action at 1280 g/ha against MATIN in %: 100%
[7]
  Post-emergence action at 1280 g/ha against POAAN in %: 100%
[17]
  Pre-emergence action against VERPE in %: 90%
[18]
  Post-emergence action against ALOMY in %: 80%
[8]
  Post-emergence action at 1280 g/ha against DIGSA in %: 100%
[19]
  Post-emergence action against VIOTR in %: 80%
[9]
  Post-emergence action at 1280 g/ha against MATIN in %: 100%
[20]
  Post-emergence action against VERPE in %: 80%
[10]
  Pre-emergence action at 1280 g/ha against STEME in %: 100%
[11]
  Pre-emergence action at 1280 g/ha against POAAN in %: 100%
[12]
  Post-emergence action at 1280 g/ha against ECHCG in %: 90%
[21]
  Pre-emergence action against LOLRI in %: 80%
[22]
  Pre-emergence action against SETVI in %: 100%
